Patent publication US5491242A, “Protein kinase C inhibitors” (Eli Lilly and Company, priority 1995, dated 1996)
Where two headings read alike, the source gives them in different places.

Experiments:
Type in all cases: biochemical
PKC beta II = PKC beta II (Homo sapiens, UniProt P05771); assay: PKC Enzyme Assay, beta II
Protocol: (§1) PKC enzymes=alpha, beta I, beta II, gamma, delta, epsilon, eta and zeta
(§2) Assay components in a total volume of 250 μL are the following:
(§3) Vesicles consisting of 120 μg/mL phosphatidylserine (Avanti Polar Lipids) and sufficient diacylglycerol (Avanti Polar Lipids) to activate the enzyme to maximum activity in 20 mM HEPES buffer (Sigma, St. Louis, Mo.), pH 7.5, 940 μM calcium chloride (Sigma, St. Louis, Mo.) for assaying the alpha, beta I, beta II and gamma enzyme only, 1 mM EGTA for all the enzymes, 10 mM magnesium chloride (Sigma, St. Louis, Mo.) and 30 μM (gamma-32P) ATP (DuPont). For all the enzymes either histone type HL (Worthington) or myelin basic protein is used as substrate. The assay is started by addition of protein kinase C enzyme incubated at 30° C. for 10 minutes and stopped by adding 0.5 mL of cold trichloroacetic acid (Amresco) followed by 100 μL of 1 mg/mL bovine serum albumin (Sigma, St. Louis, Mo.). The precipitate is collected by vacuum filtration on glass fiber filters employing a TOMTEC™ filtration system and quantified by counting in a beta scintillation counter.

PKC gamma = PKC gamma (Homo sapiens, UniProt P05129); assay: PKC Enzyme Assay, gamma; conditions: Table 1
PKC beta I = PKC beta I (Homo sapiens, UniProt P05771); assay: PKC Enzyme Assay, beta I; conditions: Table 1; read-out: IC50 β1
Protocol: as §1, §2, §3

PKC alpha = PKC alpha (Homo sapiens, UniProt P17252); assay: PKC Enzyme Assay, alpha
Protocol: as §1, §2, §3

PKC zeta = biological target: T1, PKC zeta (Homo sapiens, UniProt Q05513); assay: PKC Enzyme Assay, zeta; conditions: Table 1
T1 sequence (Q05513 1-592): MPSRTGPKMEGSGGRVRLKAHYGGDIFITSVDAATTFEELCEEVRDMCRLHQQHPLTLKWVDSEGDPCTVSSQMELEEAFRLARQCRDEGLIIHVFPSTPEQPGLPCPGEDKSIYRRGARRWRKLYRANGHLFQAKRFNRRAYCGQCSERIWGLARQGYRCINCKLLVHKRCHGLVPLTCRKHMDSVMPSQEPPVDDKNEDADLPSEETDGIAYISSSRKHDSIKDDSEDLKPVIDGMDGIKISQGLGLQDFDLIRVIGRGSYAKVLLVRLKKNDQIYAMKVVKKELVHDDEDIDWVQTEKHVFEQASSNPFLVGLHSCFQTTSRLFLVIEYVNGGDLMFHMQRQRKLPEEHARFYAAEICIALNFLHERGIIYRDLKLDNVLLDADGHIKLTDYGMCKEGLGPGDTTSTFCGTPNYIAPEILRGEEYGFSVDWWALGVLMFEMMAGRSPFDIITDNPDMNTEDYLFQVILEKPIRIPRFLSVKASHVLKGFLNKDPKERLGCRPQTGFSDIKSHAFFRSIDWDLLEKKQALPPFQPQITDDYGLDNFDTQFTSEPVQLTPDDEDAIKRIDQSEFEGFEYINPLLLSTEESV
Protocol: as §1, §2, §3

PKC delta = PKC delta (Homo sapiens, UniProt Q05655); assay: PKC Enzyme Assay, delta; conditions: Table 1
PKC delta, sequence (Q05655 whole entry): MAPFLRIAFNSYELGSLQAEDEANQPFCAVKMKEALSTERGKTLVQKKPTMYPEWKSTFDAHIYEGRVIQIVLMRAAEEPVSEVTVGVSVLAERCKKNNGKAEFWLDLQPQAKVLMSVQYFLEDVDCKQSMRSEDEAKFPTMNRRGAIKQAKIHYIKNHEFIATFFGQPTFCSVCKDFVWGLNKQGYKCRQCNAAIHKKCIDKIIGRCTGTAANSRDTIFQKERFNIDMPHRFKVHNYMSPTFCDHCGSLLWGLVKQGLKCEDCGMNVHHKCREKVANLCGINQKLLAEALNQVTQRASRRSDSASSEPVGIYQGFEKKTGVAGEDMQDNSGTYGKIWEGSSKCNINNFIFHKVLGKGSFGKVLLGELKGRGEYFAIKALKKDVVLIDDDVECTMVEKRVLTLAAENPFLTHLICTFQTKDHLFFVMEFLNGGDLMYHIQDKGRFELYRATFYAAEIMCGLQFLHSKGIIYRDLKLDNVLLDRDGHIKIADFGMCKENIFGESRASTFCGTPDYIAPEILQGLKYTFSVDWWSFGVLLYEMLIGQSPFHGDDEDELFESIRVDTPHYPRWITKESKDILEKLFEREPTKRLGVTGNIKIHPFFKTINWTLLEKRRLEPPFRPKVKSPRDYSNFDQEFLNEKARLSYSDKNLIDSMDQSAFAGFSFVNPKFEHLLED

PKC beta II, sequence (P05771 1-673 isoform P05771-2): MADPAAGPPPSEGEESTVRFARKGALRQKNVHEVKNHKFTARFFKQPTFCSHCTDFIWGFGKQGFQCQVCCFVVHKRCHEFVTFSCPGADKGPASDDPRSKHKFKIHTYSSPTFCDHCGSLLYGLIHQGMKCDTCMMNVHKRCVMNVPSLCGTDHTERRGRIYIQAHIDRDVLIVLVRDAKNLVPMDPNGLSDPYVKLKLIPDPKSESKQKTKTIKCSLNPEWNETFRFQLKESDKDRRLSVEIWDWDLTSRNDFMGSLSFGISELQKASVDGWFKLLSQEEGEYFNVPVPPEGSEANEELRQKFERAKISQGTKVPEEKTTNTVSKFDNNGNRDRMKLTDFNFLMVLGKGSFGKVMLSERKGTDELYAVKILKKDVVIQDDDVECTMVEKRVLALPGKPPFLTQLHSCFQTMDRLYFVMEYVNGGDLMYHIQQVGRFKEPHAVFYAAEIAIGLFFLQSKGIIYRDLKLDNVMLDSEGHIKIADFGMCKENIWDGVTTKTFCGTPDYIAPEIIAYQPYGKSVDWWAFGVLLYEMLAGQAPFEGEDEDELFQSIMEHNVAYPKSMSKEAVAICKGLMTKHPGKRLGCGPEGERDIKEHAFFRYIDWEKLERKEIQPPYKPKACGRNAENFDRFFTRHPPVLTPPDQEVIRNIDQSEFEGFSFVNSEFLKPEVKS
PKC beta I, sequence (P05771 whole entry): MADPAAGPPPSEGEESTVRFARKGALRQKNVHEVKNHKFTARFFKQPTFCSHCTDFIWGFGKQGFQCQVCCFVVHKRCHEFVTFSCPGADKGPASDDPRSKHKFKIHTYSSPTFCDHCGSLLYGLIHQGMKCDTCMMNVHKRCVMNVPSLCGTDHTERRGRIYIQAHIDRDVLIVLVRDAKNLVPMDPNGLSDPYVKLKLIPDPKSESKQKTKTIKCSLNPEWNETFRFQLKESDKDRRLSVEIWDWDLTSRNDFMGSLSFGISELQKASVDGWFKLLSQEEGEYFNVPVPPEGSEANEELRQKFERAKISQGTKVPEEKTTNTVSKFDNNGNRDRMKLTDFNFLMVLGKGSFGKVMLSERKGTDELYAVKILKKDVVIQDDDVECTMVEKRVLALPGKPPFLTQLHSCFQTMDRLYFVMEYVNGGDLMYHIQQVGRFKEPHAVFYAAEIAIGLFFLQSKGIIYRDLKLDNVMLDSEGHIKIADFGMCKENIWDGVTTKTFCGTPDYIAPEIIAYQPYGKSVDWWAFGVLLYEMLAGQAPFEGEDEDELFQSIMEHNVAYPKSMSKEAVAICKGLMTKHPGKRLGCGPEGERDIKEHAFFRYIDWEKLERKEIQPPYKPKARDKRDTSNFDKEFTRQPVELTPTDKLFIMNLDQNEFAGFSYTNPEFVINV

**Q.** Which results are given for `CC(C)(C)OC(=O)NCC(=O)n1cc(C2=C(c3cn(CCCN=[N+]=[N-])c4ccccc34)C(=O)NC2=O)c2ccccc21` [Example 1, 3-[1-(3-azidopropyl)-3-indolyl]-4-[(1-N-^t BOC)-glycine-3-indolyl]-1H-pyrrol-2,5-dione]?
**A.** IC50 (PKC beta II; read-out: 50% inhibition at a concentration for the beta-2 isozyme): 31 nM; IC50 (PKC gamma): 19 µM; IC50 (PKC beta I): 0.26 µM; IC50 (PKC alpha; read-out: IC50 with respect to the alpha protein kinase C isozyme): 1.4 µM; IC50 (PKC zeta): 100 µM; IC50 (PKC delta): 4.6 µM

**Q.** With `CC(C)(C)OC(=O)N[C@@H](Cc1ccccc1)C(=O)n1cc(C2=C(c3cn(C(=O)[C@H](Cc4ccccc4)NC(=O)OC(C)(C)C)c4ccccc34)C(=O)NC2=O)c2ccccc21` [Example 3, 3,4-Bis[(1-N-^t BOC)-phenylalanine-3-indolyl]-1H-pyrrol-2,5-dione] as the compound, how does the IC50 (PKC beta II; Table 1, read-out: IC50 β2) read?
**A.** 2600 nM

**Q.** What about the IC50 (PKC gamma) of the same compound?
**A.** > 100 µM

**Q.** What about the IC50 (PKC beta I) of the same compound?
**A.** 8 µM

**Q.** What about the IC50 (PKC alpha; Table 1, read-out: IC50 α) of the same compound?
**A.** 83 µM

**Q.** What about the IC50 (PKC zeta) of the same compound?
**A.** > 100 µM

**Q.** And the IC50 (PKC delta)?
**A.** > 100 µM
